We go through 3 molecules from paper PMC4273984 (ACS Chemical Biology, 2014).

The structures appear in SMILES notation.

The target of assay [1] is BrdT (Homo sapiens, UniProt Q58F21). The assay can be described thus: Protein-observed 19F NMR, 5FW-BrdT. It counts as binding. The conditions noted are these: resonance perturbation in slow exchange.
The subject of assay [2] is Brd4. The conditions noted are these: BET bromodomain inhibition; cited from earlier work.
Assay [3] deals with 3FY-Brd4(1) (Homo sapiens, UniProt O60885). Briefly: Protein-observed 19F NMR. It counts as binding.
The target of assay [4] is Brd4(1) (Homo sapiens, UniProt O60885). Particulars: fluorescence anisotropy or TR-FRET; cited from earlier work. Background: In fluorescence polarisation assays a small probe gives low polarisation when free and higher when bound to something large.
The target in assay [5] is 5FW-Brd4(1) (Homo sapiens, UniProt O60885). Briefly: Protein-observed 19F NMR. It counts as binding. Particulars: W81 resonance perturbation.

For the molecule `CC[C@@H]1C(=O)N(C)c2cnc(Nc3ccc(C(=O)NC4CCN(C)CC4)cc3OC)nc2N1C1CCCC1` [BI2536], the “binding to BrdT by PrOF NMR” value in assay [1] is “bind to BrdT”.
Broadly, the IC50 is the concentration at which inhibition is half-maximal. As for `Cc1cnc(Nc2ccc(OCCN3CCCC3)cc2)nc1Nc1cccc(S(=O)(=O)NC(C)(C)C)c1` [TG101348], in assay [2], the IC50 is […].
For orientation: Kd means the free concentration of one partner at which half of the binding sites on the other are occupied at equilibrium, for simple one-to-one binding. A high value points to lower affinity. Take `CC(=O)Nc1ccc(O)cc1` [acetaminophen]: the results for the Kd in assay [3] and in assay [5] were 290 ± 40 µM and 230 ± 30 µM, respectively. The “affinity for Brd4(1)” value in assay [4] is “too weak”.
